Values quoted from earlier work in US20230120480A1, “METHODS FOR REMOVING CONTAMINANTS FROM PLANT-DERIVED PHARMACEUTICALS” (priority 2021, published 2023).

Settings: not given
For `CCCCCc1cc(OC)c(C/C=C(\C)CCC=C(C)C)c(O)c1C(=O)O` [Cannabigerolic acid monomethylether], the “Water Soluble?” value is listed as “Yes”.
For `CCCCCc1cc2c(c(O)c1C(=O)O)[C@@H]1C=C(C)CC[C@H]1C(C)(C)O2` [Delta-9-tetrahydrocannabinolic acid A], the “Water Soluble?” value is given as “Yes”.
In the case of `C=C(C)[C@@H]1CCC(C)=C[C@H]1c1c(O)cc(CCC)c(C(=O)O)c1O` [Cannabidivarinic acid], the “Water Soluble?” value is given as “Yes”.
For `CC1=CC2c3c(O)cc(C)cc3OC(C)(C)C2CC1` (stereo not shown) [Delta-9-tetrahydrocannabiorcol], the “Water Soluble?” value is listed as “No”.
In the case of `C=C(C)[C@@H]1CCC(C)=C[C@H]1c1c(O)cc(CCCCC)cc1O` [Cannabidiol, reference compound], the “Water Soluble?” value is given as “No”.
In the case of `CCCCCc1cc(O)c(C/C=C(\C)CCC=C(C)C)c(OC)c1` [Cannabigerol monomethylether], the “Water Soluble?” value is listed as “No”.
For `CCc1cc(O)c2c(c1)OC(C)(C)c1ccc(C)cc1-2` [Cannabinol-C2], the “Water Soluble?” value is given as “No”.
In the case of `CCCCc1cc(O)c2c(c1)OC(C)(C)c1ccc(C)cc1-2` [Cannabinol-C4], the “Water Soluble?” value is listed as “No”.
For `CCCCCc1cc(O)c2c(c1)OC(C)(C)[C@H](CCC(C)=O)C2=O` [Cannabichromanon], the “Water Soluble?” value is given as “No”.
In the case of `CCCc1cc(O)c2c(c1)OC(C)(CCC=C(C)C)C=C2` (stereo not shown) [Cannabichromevarin], the “Water Soluble?” value is given as “No”.
For `C=C(C)[C@@H]1CCC(C)=C[C@H]1c1c(O)cc(CCCCC)cc1OC` [Cannabidiol monomethylether], the “Water Soluble?” value is listed as “No”.
For `Cc1cc(O)c2c(c1)OC(C)(C)c1ccc(C)cc1-2` [Cannabiorcool], the “Water Soluble?” value is given as “No”.
For `CCCc1cc(O)c(C/C=C(\C)CCC=C(C)C)c(O)c1` [Cannabigerovarin], the “Water Soluble?” value is listed as “No”.
For `CCCCCc1cc(O)c2c(c1)OC(C)(C)C1=C2C(=O)C(C)CC1` (stereo not shown) [10-Oxo-delta-6a-tetrahydrocannabinol], the “Water Soluble?” value is listed as “No”.
For `CCCCCc1cc(O)c2c(c1)OC(C)(C)[C@@H]1CC[C@](C)(O)[C@@H](O)[C@@H]21` [Cannabiripsol], the “Water Soluble?” value is given as “No”.
In the case of `CCCCCc1cc2c(c(O)c1C(=O)O)C1C3C(CCC3(C)O2)C1(C)C` (stereo not shown) [Cannabicyclolic acid], the “Water Soluble?” value is listed as “Yes”.
For Cannbicitran, the “Water Soluble?” value is given as “No”.
For `CCCc1cc(O)c2c(c1)OC1(C)CCC3C1C2C3(C)C` (stereo not shown) [Cannabicyclovarin], the “Water Soluble?” value is listed as “No”.
For `CCCCCc1cc(O)c2c(c1)OC1(C)CCC3C1C2C3(C)C` (stereo not shown) [Cannabicyclol], the “Water Soluble?” value is given as “No”.
For `C=C(C)[C@@H]1CCC(C)=C[C@H]1c1c(O)cc(C)cc1O` [Cannabidiorcol], the “Water Soluble?” value is listed as “No”.
For `CCCc1cc(O)c2c(c1)OC(C)(C)C1=C2C(O)C(C)(O)CC1` (stereo not shown) [Cannabitriolvarin], the “Water Soluble?” value is listed as “No”.
In the case of `CCCCCc1cc(O)c2c(c1)OC(C)(C)[C@H]1CCC(C)=C[C@@H]21` (relative stereo) [Delta-9-cis-tetrahydrocannabinol], the “Water Soluble?” value is listed as “No”.
In the case of `CCCc1cc2c(c(O)c1C(=O)O)C=CC(C)(CCC=C(C)C)O2` (stereo not shown) [Cannabichromevarinic acid], the “Water Soluble?” value is given as “No”.
In the case of `CCCCCc1cc(OC)c2c(c1)OC(C)(C)c1ccc(C)cc1-2` [Cannabinol methylether], the “Water Soluble?” value is given as “No”.
For `CCCCCc1cc(O)c2c(c1)OC(C)(CCC=C(C)C)C=C2` (stereo not shown) [Cannabichromene], the “Water Soluble?” value is given as “No”.
In the case of `CCCc1cc(O)c2c(c1)OC(C)(C)c1ccc(C)cc1-2` [Cannabivarin], the “Water Soluble?” value is given as “No”.
For `CCCCCc1cc(O)c2c(c1)OC(C)(C)C1=C2C(O)C(C)(O)CC1` (stereo not shown) [Cannabitriol], the “Water Soluble?” value is listed as “No”.

Settings: permissible limit of the pesticide in Cannabis, State of Oregon
In the case of `O=[N+]([O-])NC1=NCCN1Cc1ccc(Cl)nc1` [Imidacloprid], the “Action Level (ppm)” value is listed as 0.4 ppm.
In the case of `CC(C)(C)c1ccc(CSc2cnn(C(C)(C)C)c(=O)c2Cl)cc1` [Pyridaben], the “Action Level (ppm)” value is listed as 0.2 ppm.
In the case of `CCOC(=O)NCCOc1ccc(Oc2ccccc2)cc1` [Fenoxycarb], the “Action Level (ppm)” value is given as 0.2 ppm.
In the case of `CCCCCCCCCCCCC1=C(OC(C)=O)C(=O)c2ccccc2C1=O` [Acequinocyl], the “Action Level (ppm)” value is listed as 2 ppm.
In the case of `CNC(=O)Oc1cccc2ccccc12` [Carbaryl], the “Action Level (ppm)” value is listed as 0.2 ppm.
For `CN1COCN(Cc2cnc(Cl)s2)/C1=N\[N+](=O)[O-]` [Thiamethoxam], the “Action Level (ppm)” value is given as 0.2 ppm.
For `CCOC(=O)CC(SP(=S)(OC)OC)C(=O)OCC` (stereo not shown) [Malathion], the “Action Level (ppm)” value is given as 0.2 ppm.
For `O=C(Nc1ccccc1-c1ccc(Cl)cc1)c1cccnc1Cl` [Boscalid], the “Action Level (ppm)” value is given as 0.4 ppm.
In the case of `CCCCC(C#N)(Cn1cncn1)c1ccc(Cl)cc1` (stereo not shown) [Myclobutanil], the “Action Level (ppm)” value is listed as 0.2 ppm.
In the case of Spinosad, the “Action Level (ppm)” value is listed as 0.2 ppm.
In the case of `COP(=O)(OC)OC(Br)C(Cl)(Cl)Br` (stereo not shown) [Naled], the “Action Level (ppm)” value is listed as 0.5 ppm.
In the case of `C=CCOC(Cn1ccnc1)c1ccc(Cl)cc1Cl` (stereo not shown) [Imazalil], the “Action Level (ppm)” value is given as 0.2 ppm.
In the case of `CO/N=C(/C(=O)OC)c1ccccc1CO/N=C(\C)c1cccc(C(F)(F)F)c1` [Trifloxystrobin], the “Action Level (ppm)” value is given as 0.2 ppm.
In the case of `CO/C=C(/C(=O)OC)c1ccccc1Oc1cc(Oc2ccccc2C#N)ncn1` [Azoxystrobin], the “Action Level (ppm)” value is given as 0.2 ppm.
In the case of `COc1ccc(-c2ccccc2)cc1NNC(=O)OC(C)C` [Bifenazate], the “Action Level (ppm)” value is given as 0.2 ppm.
For `Cc1c(COC(=O)[C@@H]2[C@H](/C=C(\Cl)C(F)(F)F)C2(C)C)cccc1-c1ccccc1` (racemic) [Bifenthrin], the “Action Level (ppm)” value is given as 0.2 ppm.
For `CCOC(=O)OC1=C(c2cc(C)ccc2C)C(=O)N[C@]12CC[C@@H](OC)CC2` [Spirotetramat], the “Action Level (ppm)” value is given as 0.2 ppm.
In the case of `CCCCC(CC)CN1C(=O)C2C3C=CC(C3)C2C1=O` (stereo not shown) [MGK-264], the “Action Level (ppm)” value is listed as 0.2 ppm.
In the case of `CCCC1COC(Cn2cncn2)(c2ccc(Cl)cc2Cl)O1` (stereo not shown) [Propiconazole], the “Action Level (ppm)” value is given as 0.4 ppm.
In the case of `CCOCn1c(-c2ccc(Cl)cc2)c(C#N)c(Br)c1C(F)(F)F` [Chlorfenapyr], the “Action Level (ppm)” value is listed as 1 ppm.
In the case of `N#C/N=C1\SCCN1Cc1ccc(Cl)nc1` [Thiacloprid], the “Action Level (ppm)” value is given as 0.2 ppm.
For `CNC(=O)Oc1cccc2c1OC(C)(C)C2` [Carbofuran], the “Action Level (ppm)” value is given as 0.2 ppm.
For `CC1C(c2ccc(Cl)cc2)SC(=O)N1C(=O)NC1CCCCC1` (stereo not shown) [Hexythiazox], the “Action Level (ppm)” value is listed as 1 ppm.
In the case of `CNC(=O)ON=C(C)SC` [Methomyl], the “Action Level (ppm)” value is listed as 0.4 ppm.
For Abamectin, the “Action Level (ppm)” value is given as 0.5 ppm.
In the case of `CC1(C)C(C=C(Cl)Cl)C1C(=O)OC(C#N)c1ccc(F)c(Oc2ccccc2)c1` (stereo not shown) [Cyfluthrin], the “Action Level (ppm)” value is listed as 1 ppm.
In the case of `N#Cc1c[nH]cc1-c1cccc2c1OC(F)(F)O2` [Fludioxonil], the “Action Level (ppm)” value is given as 0.4 ppm.
In the case of `CCOc1cc(C(C)(C)C)ccc1C1COC(c2c(F)cccc2F)=N1` (stereo not shown) [Etoxazole], the “Action Level (ppm)” value is listed as 0.2 ppm.
In the case of `N#CCNC(=O)c1cnccc1C(F)(F)F` [Flonicamid], the “Action Level (ppm)” value is listed as 1 ppm.
In the case of `CNC(=O)Oc1cc(C)c(SC)c(C)c1` [Methiocarb], the “Action Level (ppm)” value is listed as 0.2 ppm.
In the case of `C/C(=N\C#N)N(C)Cc1ccc(Cl)nc1` [Acetamiprid], the “Action Level (ppm)” value is given as 0.2 ppm.
In the case of `CC(C)(C)C(O)(CCc1ccc(Cl)cc1)Cn1cncn1` (stereo not shown) [Tebuconazole], the “Action Level (ppm)” value is listed as 0.4 ppm.
For `COP(=S)(OC)SCN1C(=O)c2ccccc2C1=O` [Phosmet], the “Action Level (ppm)” value is listed as 0.2 ppm.
In the case of `COP(=O)(OC)OC=C(Cl)Cl` [DDVP (Dichlorvos)], the “Action Level (ppm)” value is given as 0.1 ppm.
For `CCCN(CC)CC1COC2(CCC(C(C)(C)C)CC2)O1` (stereo not shown) [Spiroxamine], the “Action Level (ppm)” value is listed as 0.4 ppm.
For `CCOP(=S)(OCC)Oc1cc(C)nc(C(C)C)n1` [Diazinon], the “Action Level (ppm)” value is given as 0.2 ppm.
In the case of `CNC(=O)Oc1ccccc1OC(C)C` [Propoxur], the “Action Level (ppm)” value is listed as 0.2 ppm.
In the case of `COCC(=O)N(c1c(C)cccc1C)C(C)C(=O)OC` (stereo not shown) [Metalaxyl], the “Action Level (ppm)” value is listed as 0.2 ppm.
In the case of `CNC(=O)c1cc(Cl)cc(C)c1NC(=O)c1cc(Br)nn1-c1ncccc1Cl` [Chlorantranili- prole], the “Action Level (ppm)” value is given as 0.2 ppm.
In the case of Pyrethrins, the “Action Level (ppm)” value is listed as 1 ppm.
For `Cc1cc(C)c(C2=C(OC(=O)CC(C)(C)C)C3(CCCC3)OC2=O)c(C)c1` [Spiromesifen], the “Action Level (ppm)” value is listed as 0.2 ppm.
For `CC1(C)C(C=C(Cl)Cl)C1C(=O)OCc1cccc(Oc2ccccc2)c1` (stereo not shown) [Permethrins], the “Action Level (ppm)” value is listed as 0.2 ppm.
In the case of `CNC(=O)O/N=C/C(C)(C)SC` [Aldicarb], the “Action Level (ppm)” value is given as 0.4 ppm.
In the case of `CNC(=O)CSP(=S)(OC)OC` [Dimethoate], the “Action Level (ppm)” value is listed as 0.2 ppm.
In the case of `COP(=O)(NC(C)=O)SC` (stereo not shown) [Acephate], the “Action Level (ppm)” value is given as 0.4 ppm.
For `CO/N=C(/C(=O)OC)c1ccccc1COc1ccccc1C` [Kresoxim- methyl], the “Action Level (ppm)” value is listed as 0.4 ppm.
In the case of `C#CCC1=C(C)C(OC(=O)[C@@H]2[C@@H](C=C(C)C)C2(C)C)CC1=O` (stereo partly shown) [Prallethrin], the “Action Level (ppm)” value is given as 0.2 ppm.
For `Cc1nn(C)c(Oc2ccccc2)c1/C=N/OCc1ccc(C(=O)OC(C)(C)C)cc1` [Fenpyroximate], the “Action Level (ppm)” value is given as 0.4 ppm.
In the case of `N#Cc1nn(-c2c(Cl)cc(C(F)(F)F)cc2Cl)c(N)c1[S+]([O-])C(F)(F)F` (stereo not shown) [Fipronil], the “Action Level (ppm)” value is listed as 0.4 ppm.
In the case of `CCOc1ccc(C(C)(C)COCc2cccc(Oc3ccccc3)c2)cc1` [Etofenprox], the “Action Level (ppm)” value is listed as 0.4 ppm.
For `CNC(=O)O/N=C(\SC)C(=O)N(C)C` [Oxamyl], the “Action Level (ppm)” value is given as 1 ppm.
For `CC(C)(C)C(O)C(Cc1ccc(Cl)cc1)n1cncn1` (stereo not shown) [Paclobutrazol], the “Action Level (ppm)” value is listed as 0.4 ppm.
